Test results reported in paper PMC9401487 (Clinical Cancer Research, 2021).

System: patients with advanced solid tumors
Experiment: Phase I safety and tolerability
Format: in vivo, human
[1] = Cohort 7 (N=6), co-dosing 40 mg QD + carboplatin days 1 and 2
[2] = Cohort 7: 40 mg QD days 1–2 + carboplatin AUC5 day 1, 6 patients
[3] = all 36 patients, ceralasertib + carboplatin

C[C@@H]1COCCN1c1cc(C2([S@](C)(=N)=O)CC2)nc(-c2cc[nH]c3nccc2-3)n1 [ceralasertib]
TEAE Constipation, Grade 1–2 [1]: 3 (50) patients, n (%)
TEAE Constipation, Grade ≥3 [1]: 0 patients, n (%)
TEAE Contusion, Grade 1–2 [1]: 1 (17) patients, n (%)
TEAE Contusion, Grade ≥3 [1]: 0 patients, n (%)
TEAE Cough, Grade 1–2 [1]: 0 patients, n (%)
TEAE Cough, Grade ≥3 [1]: 0 patients, n (%)
TEAE Decreased appetite, Grade 1–2 [1]: 3 (50) patients, n (%)
TEAE Decreased appetite, Grade ≥3 [1]: 0 patients, n (%)
TEAE Diarrhea, Grade 1–2 [1]: 1 (17) patients, n (%)
TEAE Diarrhea, Grade ≥3 [1]: 0 patients, n (%)
TEAE Dizziness, Grade 1–2 [1]: 0 patients, n (%)
TEAE Dizziness, Grade ≥3 [1]: 0 patients, n (%)
TEAE Dyspnea, Grade 1–2 [1]: 0 patients, n (%)
TEAE Dyspnea, Grade ≥3 [1]: 0 patients, n (%)
TEAE Fatigue, Grade 1–2 [1]: 4 (67) patients, n (%)
TEAE Fatigue, Grade ≥3 [1]: 0 patients, n (%)
TEAE Hypocalcemia, Grade 1–2 [1]: 1 (17) patients, n (%)
TEAE Hypocalcemia, Grade ≥3 [1]: 0 patients, n (%)
TEAE Insomnia, Grade 1–2 [1]: 0 patients, n (%)
TEAE Insomnia, Grade ≥3 [1]: 0 patients, n (%)
TEAE Lower respiratory tract infection, Grade 1–2 [1]: 0 patients, n (%)
TEAE Lower respiratory tract infection, Grade ≥3 [1]: 0 patients, n (%)
TEAE Nausea, Grade 1–2 [1]: 5 (83) patients, n (%)
TEAE Nausea, Grade ≥3 [1]: 0 patients, n (%)
TEAE Neutropenia, Grade 1–2 [1]: 0 patients, n (%)
TEAE Neutropenia, Grade ≥3 [1]: 0 patients, n (%)
TEAE Neutrophil count decreased, Grade 1–2 [1]: 0 patients, n (%)
TEAE Neutrophil count decreased, Grade ≥3 [1]: 1 (17) patients, n (%)
TEAE Platelet count decreased, Grade 1–2 [1]: 2 (33) patients, n (%)
TEAE Platelet count decreased, Grade ≥3 [1]: 1 (17) patients, n (%)
TEAE Pyrexia, Grade 1–2 [1]: 1 (17) patients, n (%)
TEAE Pyrexia, Grade ≥3 [1]: 0 patients, n (%)
TEAE Thrombocytopenia, Grade 1–2 [1]: 0 patients, n (%)
TEAE Thrombocytopenia, Grade ≥3 [1]: 0 patients, n (%)
TEAE Upper respiratory tract infection, Grade 1–2 [1]: 1 (17) patients, n (%)
TEAE Upper respiratory tract infection, Grade ≥3 [1]: 0 patients, n (%)
TEAE Vomiting, Grade 1–2 [1]: 0 patients, n (%)
TEAE Vomiting, Grade ≥3 [1]: 1 (17) patients, n (%)
TEAE White blood cell count decreased, Grade 1–2 [1]: 0 patients, n (%)
TEAE White blood cell count decreased, Grade ≥3 [1]: 0 patients, n (%)
Number of DLTs [2]: one DLT of grade 4 platelet count decreased
SRC decision (tolerability) [2]: declared safe and well tolerated
Patients who discontinued treatment because of an AE (N=36): 14%
TEAE Abdominal pain, Grade 1–2 (Total (N=36)): 5 (14) patients, n (%)
TEAE Abdominal pain, Grade ≥3 (Total (N=36)): 1 (3) patients, n (%)
TEAE Alanine aminotransferase increased, Grade 1–2 (Total (N=36)): 3 (8) patients, n (%)
TEAE Alanine aminotransferase increased, Grade ≥3 (Total (N=36)): 1 (3) patients, n (%)
TEAE Anemia, Grade 1–2 (Total (N=36)): 11 (31) patients, n (%)
TEAE Anemia, Grade ≥3 (Total (N=36)): 14 (39) patients, n (%)
TEAE Any AE, Grade 1–2 (Total (N=36)): 9 (25) patients, n (%)
TEAE Any AE, Grade ≥3 (Total (N=36)): 27 (75) patients, n (%)
TEAE Arthralgia, Grade 1–2 (Total (N=36)): 4 (11) patients, n (%)
TEAE Arthralgia, Grade ≥3 (Total (N=36)): 0 patients, n (%)
TEAE Aspartate aminotransferase increased, Grade 1–2 (Total (N=36)): 3 (8) patients, n (%)
TEAE Aspartate aminotransferase increased, Grade ≥3 (Total (N=36)): 1 (3) patients, n (%)
TEAE Constipation, Grade 1–2 (Total (N=36)): 10 (28) patients, n (%)
TEAE Constipation, Grade ≥3 (Total (N=36)): 0 patients, n (%)
TEAE Contusion, Grade 1–2 (Total (N=36)): 4 (11) patients, n (%)
TEAE Contusion, Grade ≥3 (Total (N=36)): 0 patients, n (%)
TEAE Cough, Grade 1–2 (Total (N=36)): 5 (14) patients, n (%)
TEAE Cough, Grade ≥3 (Total (N=36)): 0 patients, n (%)
TEAE Decreased appetite, Grade 1–2 (Total (N=36)): 8 (22) patients, n (%)
TEAE Decreased appetite, Grade ≥3 (Total (N=36)): 0 patients, n (%)
TEAE Diarrhea, Grade 1–2 (Total (N=36)): 6 (17) patients, n (%)
TEAE Diarrhea, Grade ≥3 (Total (N=36)): 0 patients, n (%)
TEAE Dizziness, Grade 1–2 (Total (N=36)): 4 (11) patients, n (%)
TEAE Dizziness, Grade ≥3 (Total (N=36)): 0 patients, n (%)
TEAE Dyspnea, Grade 1–2 (Total (N=36)): 5 (14) patients, n (%)
TEAE Dyspnea, Grade ≥3 (Total (N=36)): 0 patients, n (%)
TEAE Fatigue, Grade 1–2 (Total (N=36)): 16 (44) patients, n (%)
TEAE Fatigue, Grade ≥3 (Total (N=36)): 1 (3) patients, n (%)
TEAE Hypocalcemia, Grade 1–2 (Total (N=36)): 4 (11) patients, n (%)
TEAE Hypocalcemia, Grade ≥3 (Total (N=36)): 0 patients, n (%)
TEAE Insomnia, Grade 1–2 (Total (N=36)): 5 (14) patients, n (%)
TEAE Insomnia, Grade ≥3 (Total (N=36)): 0 patients, n (%)
TEAE Lower respiratory tract infection, Grade 1–2 (Total (N=36)): 4 (11) patients, n (%)
TEAE Lower respiratory tract infection, Grade ≥3 (Total (N=36)): 1 (3) patients, n (%)
TEAE Nausea, Grade 1–2 (Total (N=36)): 20 (56) patients, n (%)
TEAE Nausea, Grade ≥3 (Total (N=36)): 1 (3) patients, n (%)
TEAE Neutropenia, Grade 1–2 (Total (N=36)): 4 (11) patients, n (%)
TEAE Neutropenia, Grade ≥3 (Total (N=36)): 9 (25) patients, n (%)
TEAE Neutrophil count decreased, Grade 1–2 (Total (N=36)): 0 patients, n (%)
TEAE Neutrophil count decreased, Grade ≥3 (Total (N=36)): 4 (11) patients, n (%)
TEAE Platelet count decreased, Grade 1–2 (Total (N=36)): 4 (11) patients, n (%)
TEAE Platelet count decreased, Grade ≥3 (Total (N=36)): 2 (6) patients, n (%)
TEAE Pyrexia, Grade 1–2 (Total (N=36)): 9 (25) patients, n (%)
TEAE Pyrexia, Grade ≥3 (Total (N=36)): 0 patients, n (%)
TEAE Thrombocytopenia, Grade 1–2 (Total (N=36)): 12 (33) patients, n (%)
TEAE Thrombocytopenia, Grade ≥3 (Total (N=36)): 13 (36) patients, n (%)
TEAE Upper respiratory tract infection, Grade 1–2 (Total (N=36)): 4 (11) patients, n (%)
TEAE Upper respiratory tract infection, Grade ≥3 (Total (N=36)): 0 patients, n (%)
TEAE Vomiting, Grade 1–2 (Total (N=36)): 7 (19) patients, n (%)
TEAE Vomiting, Grade ≥3 (Total (N=36)): 2 (6) patients, n (%)
TEAE White blood cell count decreased, Grade 1–2 (Total (N=36)): 0 patients, n (%)
TEAE White blood cell count decreased, Grade ≥3 (Total (N=36)): 5 (14) patients, n (%)
TEAE anemia, any grade, patients [3]: 69.4%
TEAE fatigue, any grade, patients [3]: 47%
TEAE grade ≥3 anemia, patients [3]: 39%
TEAE grade ≥3 neutropenia, patients [3]: 25%
TEAE grade ≥3 thrombocytopenia, patients [3]: 36%
TEAE nausea, any grade, patients [3]: 58%
TEAE neutropenia, any grade, patients [3]: 36%
TEAE thrombocytopenia, any grade, patients [3]: 69.4%
AEs with a fatal outcome (all cohorts): no AEs with a fatal outcome were reported
Clinical chemistry laboratory variables, vital signs, ECG parameters (all cohorts): No clinically significant findings
Patients with dose modifications (cycle 1 and beyond, N=36): 47%
Patients with dose reductions (cycle 1 and beyond, N=36): 25%
Patients with treatment interruptions (cycle 1 and beyond, N=36): 31%
MTD dose schedule (concurrent) (days 1–2, with carboplatin AUC5, 21-day cycles): 40 mg once daily
MTD dose schedule (sequential) (days 4–13, with carboplatin AUC5, 21-day cycles): 20 mg twice daily
Patients who experienced ≥1 TEAE (safety set N=36): 36 patients
